From patent US20060111305A1, “Metabolites of certain [1,4]diazepino[6,7,1-ij]quinoline derivatives and methods of preparation and use thereof” (Wyeth, priority 2004, published 2006)
Read-outs that look alike come from different tables or passages of the source.

Legend:
[1] = Dog urinary excretion and metabolite profiles after oral capsule of [14C]DCDQ; assay type: in vivo, beagle dogs
Experimental: Blood samples were collected from the jugular vein at 2, 4, 8, 24 and 48 hour after dose administration into tubes containing potassium EDTA as the anticoagulant and then placed on ice. Aliquots of 50 μL were removed for combustion and determination of radioactivity content. Plasma was immediately obtained from the remaining blood by centrifugation at 4° C. Urine samples were collected into tubes on dry ice at intervals of 0-8, 8-24 and 24-48 hour post-dose. Fecal samples were collected at intervals of 0-8, 8-24 and 24-48 hour post-dose at room temperature, and were homogenized. The biological specimens were stored at approximately −70° C. until analysis.
(§1) For plasma profiles, a TopCount NXT radiometric microplate reader (Perkin Elmer) was used to analyze the radioactivity in collected HPLC fractions. The limit of detection by TopCount was about 1 ng equivalent/mL. A Flo-One β Model A525 radioactivity detector (Perkin Elmer) with a 250 μL LQTR flow cell was used to acquire data for urine and fecal samples. The flow rate of Ultima Flow M scintillation fluid was 1 mL/min, providing a mixing ratio of scintillation cocktail to mobile phase of 5:1. The limits of detection by Flo-One detector were about 200 ng equivalents/mL for urine and 12 ng equivalents/g for feces.
Urine was analyzed for radioactivity concentration and analyzed by HPLC with radioactivity flow detection for metabolite profiles by direct injection to the HPLC column. LC/MS analyses for metabolite identification were also carried out with urine samples.
(§2) A Waters model 2690 HPLC system (Waters Corp., Milford, Mass.) with a built-in autosampler was used for analysis. Separations were accomplished on a Phenomenex Luna C18(2) column (150×2.0 mm, 5 μm) (Phenomenex, Torrance, Calif.). The sample chamber of the autosampler was maintained at 4° C., while the column was at ambient temperature of about 20° C. A variable wavelength UV detector set to monitor 250 nm and a Flo-One β Model A525 radioactivity detector were used for data acquisition. The HPLC mobile phase consisted of 10 mM ammonium acetate, pH 4.5 (A) and acetonitrile (B), and was delivered at 0.2 mL/min. Chromatographic condition A was used for dose analysis, while condition B was used for analysis of urine and plasma, brain and fecal extracts.

[2] = Rat urinary excretion and metabolite profiles after single oral 5 mg/kg [14C]DCDQ; assay type: in vivo, Sprague-Dawley rats; details: for Chromatographic distribution of radioactivity in male rat urine / Percentage of dose for urinary metabolites in rats: oral 5 mg/kg, mean n = 3; for radioactive dose recovered in urine: male rats
Experimental: At sacrifice, blood samples were collected by cardiac puncture into tubes containing EDTA as the anticoagulant and placing them on ice. Aliquots of 50 μL were removed for combustion and determination of radioactivity content. Plasma was immediately obtained from the remaining blood by centrifugation at 4° C. Brains were excised after perfusion with 50 mL of chilled sterile saline. Urine samples were collected on dry ice at intervals of 0-8 and 8-24 hour post-dosing. Feces were collected at intervals of 0-8 and 8-24 hr post-dosing at room temperature and were homogenized as described previously. The biological specimens and aliquots of the dosing solution at pre- and post-dose were stored at approximately −70° C. until analyzed.
Plasma (20 μL) and urine (50 μL) aliquots were analyzed for radioactivity concentrations. Radioactivity determinations of dose, plasma and urine were made with a Tri-Carb Model 3100 TR/LL liquid scintillation counter (LSC) (Perkin Elmer) using 10 mL of Ultima Gold as the scintillation fluid.
Urine was analyzed for radioactivity concentration as and analyzed for metabolite profiles by direct injection onto the HPLC column. LC/MS analyses for metabolite identification were also carried out with urine samples.
as §2, with “radioactivity detector described above were used” for “radioactivity detector were used”, “(A) and methanol (B), and” for “(A) and acetonitrile (B), and”

[3] = Metabolites of DCDQ identified in dogs by LC/MS analysis (Table 26); assay type: in vivo, beagle dogs; details: P = plasma, U = urine, B = brain, F = feces
From the text: An Agilent Model 1100 HPLC system (Agilent Technologies, Palo Alto, Calif.) including an autosampler and diode array UV detector was used for LC/MS analysis. The UV detector was set to monitor 200 to 400 nm. For selected LC/MS analysis, radiochromatograms were acquired using a β-Ram model 3 radioactivity flow detector (IN/US Systems Inc., Tampa, Fla.) equipped with a solid scintillant flow cell. LC conditions were the same as the condition B described above.
The mass spectrometer used for metabolite characterization was a Micromass Q-TOF-2 quadrupole time-of-flight hybrid mass spectrometer (Waters). The mass spectrometer was equipped with an electrospray ionization (ESI) interface and operated in the positive ionization mode. Collision energy settings of 5 and 30 eV were used for full MS and MS/MS scans, respectively. Settings for the mass spectrometer are listed below.

[4] = Dog plasma metabolite profiles after single 15 mg/kg oral capsule of [14C]DCDQ; assay type: in vivo, beagle dogs
Experimental: as §1
Plasma samples were analyzed for metabolite profiles by HPLC. Aliquots of plasma were mixed with two volumes of cold methanol containing 0.1% trifluoroacetic acid (TFA), placed on ice for about 2 minutes and then centrifuged. The supernatant fluid was transferred to a clean tube and evaporated at 22° C. under nitrogen in a Zymark TurboVap LV (Caliper Life Sciences, Hopkinton, Mass.) to a volume of about 0.3 mL. The residue was centrifuged, the supernatant volume measured and extraction efficiency determined by analysis of duplicate 20 μL aliquots for radioactivity. A 200 μL aliquot of the supernatant was injected onto the HPLC column and the effluent was collected at 20 second intervals into 96-well Lumaplates (Perkin Elmer). The plates were dried overnight in an oven at 40° C. and analyzed by a TopCount. Plasma extracts were also analyzed by LC/MS.
as §2

[5] = male, beagle, dog, plasma, oral, 15 mg/kg, 2 hr, dog 1, read-out: Estimated plasma concentration in dogs
[6] = male, beagle, dog, plasma, oral, 15 mg/kg, 2 hr, dog 2, read-out: Estimated plasma concentration in dogs
[7] = male, beagle, dog, plasma, oral, 15 mg/kg, 4 hr, dog 1, read-out: Estimated plasma concentration in dogs
[8] = male, beagle, dog, plasma, oral, 15 mg/kg, 4 hr, dog 2, read-out: Estimated plasma concentration in dogs
[9] = male, beagle, dog, plasma, oral, 15 mg/kg, 8 hr, dog 1, read-out: Estimated plasma concentration in dogs
[10] = male, beagle, dog, plasma, oral, 15 mg/kg, 24 hr, dog 1, read-out: Estimated plasma concentration in dogs
[11] = 0-8 hr, dog no. not printed (dog 1 by footnote a)

Chromatographic distribution of radioactivity in dog urine ([1]; 24-48 hr, dog 1) [%] | Chromatographic distribution of radioactivity in dog plasma ([4]; 2 hr, dog 2) [%] | Chromatographic distribution of radioactivity in dog plasma ([4]; 4 hr, dog 2) [%] | Chromatographic distribution of radioactivity in dog plasma ([4]; 8 hr, dog 1) [%] | Estimated plasma concentration in dogs ([4]; 8 hr, dog 2) | Estimated plasma concentration in dogs ([4]; 8 hr, dog 3) | Estimated plasma concentration in dogs ([4]; 48 hr, dog 1) | Estimated plasma concentration in dogs ([4]; 48 hr, dog 3) | concentration at 2 h [4, 6] [ng/mL] | concentration at 4 h [4, 8] [ng/mL] | concentration at 8 h [4, 9] [ng/mL] | SMILES | Chromatographic distribution of radioactivity in dog urine ([1]; 8-24 hr, dog 1) [%] | Chromatographic distribution of radioactivity in dog urine ([1]; 8-24 hr, dog 3) [%] | Chromatographic distribution of radioactivity in dog urine ([1]; 24-48 hr, Mean) [%] | Chromatographic distribution of radioactivity in dog urine ([1]; 24-48 hr, dog 3) [%] | Chromatographic distribution of radioactivity in dog urine ([1]; 24-48 hr, dog 4) [%] | Matrix [3] | Chromatographic distribution of radioactivity in dog plasma ([4]; 2 hr, dog 1) [%] | Chromatographic distribution of radioactivity in dog plasma ([4]; 4 hr, dog 1) [%] | Chromatographic distribution of radioactivity in dog plasma ([4]; 24 hr, dog 1) [%] | other results
8.5 | 2.9 | 5.3 | 4.0 | BQL | BQL | BQL | BQL | 36.4 | 86.6 | 21.7 | [O-][N+]12CCN=Cc3cccc(c31)[C@H]1CCC[C@H]1C2 (stereo partly shown) [Metabolite M5, DCDQ imine N-oxide] |  |  |  |  |  |  | 12 | 6.6 |  | Chromatographic distribution of radioactivity in dog urine [1, 11]: 5.9%; Chromatographic distribution of radioactivity in dog urine ([1]; 24-48 hr, dog 2): 4.0%; Estimated plasma concentration in dogs ([4]; 24 hr, dog 1): BQL; Estimated plasma concentration in dogs ([4]; 24 hr, dog 2): BQL; Estimated plasma concentration in dogs ([4]; 24 hr, dog 3): BQL; Chromatographic distribution of radioactivity in dog plasma ([4]; 48 hr, dog 2): 2.8%; concentration at 2 h [4, 5]: 43.1 ng/mL; concentration at 4 h [4, 7]: 33.1 ng/mL; concentration at 48 h ([4]; male, beagle, dog, plasma, oral, 15 mg/kg, 48 hr, dog 2, read-out: Estimated plasma concentration in dogs): 18.9 ng/mL
5.8 | 19 | 13 | 7.0 | BQL | BQL | BQL | BQL | 239 | 215 | 37.9 | O=C(O)[C@H]1O[C@@H](OC(=O)N2CCN3C[C@@H]4CCC[C@@H]4c4cccc(c43)C2)[C@H](O)[C@@H](O)[C@@H]1O [Metabolite M6, carbamoyl glucuronide of DCDQ] | 6.1 | 3.6 | 4.7 | 4.3 | 5.9 | P, U |  |  | 17 | Chromatographic distribution of radioactivity in dog urine [1, 11]: 13%; Chromatographic distribution of radioactivity in dog urine ([1]; 8-24 hr, Mean): 5.8%; Chromatographic distribution of radioactivity in dog urine ([1]; 8-24 hr, dog 2): 7.6%; Chromatographic distribution of radioactivity in dog urine ([1]; 24-48 hr, dog 2): 3.5%; Estimated plasma concentration in dogs ([4]; 2 hr, dog 1): BQL; Estimated plasma concentration in dogs ([4]; 4 hr, dog 1): BQL; Chromatographic distribution of radioactivity in dog plasma ([4]; 24 hr, dog 2): 5.6%; Estimated plasma concentration in dogs ([4]; 24 hr, dog 3): BQL; Estimated plasma concentration in dogs ([4]; 48 hr, dog 2): BQL; concentration at 24 h [4, 10]: 258 ng/mL; concentration at 24 h ([4]; male, beagle, dog, plasma, oral, 15 mg/kg, 24 hr, dog 2, read-out: Estimated plasma concentration in dogs): 62.1 ng/mL
 |  |  |  |  |  |  |  |  |  |  | c1cc2c3c(c1)[C@H]1CCC[C@H]1CN3CCNC2 [[^14C]DCDQ] |  |  |  |  |  |  |  |  |  | radioactive dose recovered in urine ([2]; 0-8 hour period): 32.5%; radioactive dose recovered in urine ([2]; 8-24 hour period): 34.2%; radioactive dose recovered in urine ([2]; first 24 hours post-dose): 66.7±5.0%

SMILES | Chromatographic distribution of radioactivity in dog urine ([1]; 24-48 hr, dog 1) [%] | Chromatographic distribution of radioactivity in dog plasma ([4]; 2 hr, dog 2) [%] | Chromatographic distribution of radioactivity in dog plasma ([4]; 4 hr, dog 2) [%] | Chromatographic distribution of radioactivity in dog plasma ([4]; 8 hr, dog 1) [%] | Estimated plasma concentration in dogs ([4]; 8 hr, dog 2) | Estimated plasma concentration in dogs ([4]; 8 hr, dog 3) | Estimated plasma concentration in dogs ([4]; 48 hr, dog 1) | Estimated plasma concentration in dogs ([4]; 48 hr, dog 3) | concentration at 2 h [4, 6] [ng/mL] | concentration at 4 h [4, 8] [ng/mL] | concentration at 8 h [4, 9] [ng/mL] | Chromatographic distribution of radioactivity in dog urine ([1]; 8-24 hr, dog 1) [%] | Chromatographic distribution of radioactivity in dog urine ([1]; 8-24 hr, dog 3) [%] | Chromatographic distribution of radioactivity in dog urine ([1]; 24-48 hr, Mean) [%] | Chromatographic distribution of radioactivity in dog urine ([1]; 24-48 hr, dog 3) [%] | Chromatographic distribution of radioactivity in dog urine ([1]; 24-48 hr, dog 4) [%] | Matrix [3] | Chromatographic distribution of radioactivity in dog plasma ([4]; 2 hr, dog 1) [%] | Chromatographic distribution of radioactivity in dog plasma ([4]; 4 hr, dog 1) [%] | Chromatographic distribution of radioactivity in dog plasma ([4]; 24 hr, dog 1) [%] | other results
c1cc2c3c(c1)[C@H]1CCC[C@H]1CN3CCNC2 [DCDQ, (9aR,12aS)-4,5,6,7,9,9a,10,11,12,12a-decahydro-cyclopenta[c][1,4]diazepine[6,7,1-ij]quinoline, reference compound] | 3.8 | 1.9 | 21 | 2.7 | BQL | BQL | BQL | BQL | 23.2 | 345 | 14.5 | 9.5 | 11 | 3.4 | 3.0 | 6.9 | P, U, F | 11 | 11 | 2.6 | Chromatographic distribution of radioactivity in male rat urine ([2]; 0-8 hr): 1.29%; Percentage of dose for urinary metabolites in rats ([2]; 0-8 hr): 0.42%; Chromatographic distribution of radioactivity in male rat urine ([2]; 8-24 hr): 1.46%; Percentage of dose for urinary metabolites in rats ([2]; 8-24 hr): 0.51%; Estimated plasma concentration in dogs ([4]; 24 hr, dog 2): BQL; Chromatographic distribution of radioactivity in dog plasma ([4]; 24 hr, dog 3): 2.3%; Estimated plasma concentration in dogs ([4]; 48 hr, dog 2): BQL; concentration at 2 h [4, 5]: 39.6 ng/mL; concentration at 4 h [4, 7]: 52.5 ng/mL; concentration at 24 h [4, 10]: 39.6 ng/mL; concentration at 24 h ([4]; male, beagle, dog, plasma, oral, 15 mg/kg, 24 hr, dog 3, read-out: Estimated plasma concentration in dogs): 43.8 ng/mL
